Data published in patent US20240174603A1 (Rappta Therapeutics Oy, priority 2021, published 2024).

What follows are molecules tested on LNCaP cells (assay: LNCaP cell viability assay (MTS)). Details: Homo sapiens, LNCaP, 48 h, LNCaP cell line.
Assay type: cell-based
Outline: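 GI50 derived by nonlinear four-parameter curve fitting (bottom fixed at zero) of MTS viability data. Prostate LNCaP cells seeded at 5000/well were given compound doses from 1 to 80 µM one day after plating and assayed after 48 h of exposure.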

GI50 | SMILES
31.1 µM | O=[N+]([O-])c1cc(S(=O)(=O)NCC2(c3ccc(Cl)c(Cl)c3)CC2)ccc1OC(F)(F)F [Compound 232, N-((1-(3,4-dichlorophenyl)cyclopropyl)methyl)-3-nitro-4-(trifluoromethoxy)benzenesulfonamide]
57.8 µM | CCOC(=O)C(Cc1cc(Cl)sc1Cl)NS(=O)(=O)c1ccc(OC(F)(F)F)cc1 (stereo not drawn) [Compound 42, Ethyl 3-(2,5-dichlorothiophen-3-yl)-2-((4-(trifluoromethoxy)phenyl)sulfonamido)propanoate]
28.9 µM | CC(C)CC(NS(=O)(=O)c1ccc(OC(F)(F)F)cc1)c1cccc(C#N)c1 (stereo not drawn) [Compound 26, N-(1-(3-cyanophenyl)-3-methylbutyl)-4-(trifluoromethoxy)benzenesulfonamide]
33 µM | CCCCN(CCNS(=O)(=O)c1ccc(OC(F)(F)F)cc1)Cc1cccc(Cl)c1 [Compound 54, N-(2-(butyl(3-chlorobenzyl)amino)ethyl)-4-(trifluoromethoxy)benzenesulfonamide]
55.8 µM | CCc1ccc(C(CNS(=O)(=O)c2ccc(OC(F)(F)F)cc2)N2CCCC2)cc1 (stereo not drawn) [Compound 28, N-(2-(4-ethylphenyl)-2-(pyrrolidine-1-yl)ethyl)-4-(trifluoromethoxy)benzenesulfonamide]
80 µM | O=S(=O)(NC(CC1CC1)c1ccc(F)cc1Br)c1ccc(OC(F)(F)F)cc1 (single isomer, unassigned) [Compound 142a, N-(1-(2-bromo-4-fluorophenyl)-2-cyclopropylethyl)-4-(trifluoromethoxy)benzenesulfonamide]
24.6 µM | O=S(=O)(NCCNS(=O)(=O)c1cc(Br)ccc1Br)c1ccc(OC(F)(F)F)cc1 [Compound 3, 2,5-dibromo-N-(2-((4-(trifluoromethoxy)phenyl)sulfonamido)ethyl)benzenesulfonamide]
2.27 µM | CN(C)CC(NS(=O)(=O)c1ccc(OC(F)(F)F)c([N+](=O)[O-])c1)c1cccc(C(F)(F)F)c1 (stereo not drawn) [Compound 205, N-(2-(dimethylamino)-1-(3-(trifluoromethyl)phenyl)ethyl)-3-nitro-4-(trifluoromethoxy)benzenesulfonamide]
51.9 µM | CCOC(=O)C[C@@H](NS(=O)(=O)c1ccc(OC(F)(F)F)cc1)c1ccccc1Cl [Compound 14, Ethyl (R)-3-(2-chlorophenyl)-3-((4-(trifluoromethoxy)phenyl)sulfonamido)propanoate]
51.2 µM | NC[C@H](NS(=O)(=O)c1ccc(OC(F)(F)F)cc1)c1ccccc1 [Compound 116, (R)—N-(2-amino-1-phenylethyl)-4-(trifluoromethoxy)benzenesulfonamide]
12.3 µM | CN1CCN(CC(NS(=O)(=O)c2ccc(Oc3ccccc3)cc2)c2ccc(Cl)c(Cl)c2)CC1 (stereo not drawn) [Compound 236, N-(1-(3,4-dichlorophenyl)-2-(4-methylpiperazin-1-yl)ethyl)-4-phenoxybenzenesulfonamide]
42 µM | COC(=O)C(NS(=O)(=O)c1ccc(OC(F)(F)F)cc1)c1ccccc1Br (stereo not drawn) [Compound 92, Methyl 2-(2-bromophenyl)-2-((4-(trifluoromethoxy)phenyl)sulfonamido)acetate]
49.7 µM | Cn1ccc(S(=O)(=O)NCC(NS(=O)(=O)c2ccc(OC(F)(F)F)cc2)c2ccccc2)c1 (stereo not drawn) [Compound 124, 1-methyl-N-(2-phenyl-2-((4-(trifluoromethoxy)phenyl)sulfonamido)ethyl)-1H-pyrrole-3-sulfonamide]

SMILES | GI50
CN(C)CC(NS(=O)(=O)c1ccc(OC2CCC2)cc1)c1ccc(Cl)c(Cl)c1 (stereo not drawn) [Compound 248, 4-cyclobutoxy-N-(1-(3,4-dichlorophenyl)-2-(dimethylamino)ethyl)benzenesulfonamide] | 16.4 µM

Same assay, conditions: LNCaP cell line, 48 hours

GI50 | SMILES
21.6 µM | CN(C)CC(NS(=O)(=O)c1ccc(OC(F)(F)F)c(Cl)c1)c1ccc(Cl)c(Cl)c1 (single isomer, unassigned) [Compound 202, 3-chloro-N-(1-(3,4-dichlorophenyl)-2-(dimethylamino)ethyl)-4-(trifluoromethoxy)benzenesulfonamide]
